“Also recorded” adds a separate entry of the source.
What was measured:
[1] = biological target: p300 (Homo sapiens, UniProt Q09472); test: Binding to coactivator p300
Description: ICG-001. Applicant's pharmacologic tools were identified using cell-based forward chemical genomic screens of small molecule secondary structure template chemical libraries (22).

[2] = biological target: CBP/beta-catenin interaction (Homo sapiens, UniProt Q92793); test: Disruption of the CBP/beta-catenin interaction; type: biochemical
Description: (§1) Applicant next mapped the binding domains between CBP and beta-catenin, as well as between p300 and beta-catenin. The C-terminal trans-activating region of beta-catenin (647-781) interacted with the same 1-111 amino acids of both CBP and p300 (23). However, only the interaction between CBP and beta-catenin was disrupted by ICG-001, and not the p300/beta-catenin interaction.

[3] = test system: p300/beta-catenin interaction; test: Disruption of the p300/beta-catenin interaction; type: biochemical
Description: as §1
IQ-1. In addition to ICG-001, a screen of a large chemical library for maintenance of pluripotency in mES cells led to the identification of another compound, termed IQ-1 (FIG. 2b). […] I-Q-1 diminishes the interaction between p300 and beta-catenin thereby increasing the CBP/beta-catenin interaction (24).

[4] = test system: Colorectal cancer cells; test: ChIP and message of Wnt/beta-catenin target genes in colorectal cancer cells; type: cell-based
Description: The effects of CBP/catenin antagonism on Wnt target genes are highly promoter specific. Colorectal cancer cells were treated with ICG-001, thereby disrupting the CBP/catenin interaction, and then examined for coactivator occupancy at the promoter regions of several Wnt/beta-catenin regulated target genes using a Chromatin Immuno-precipitation Assay (ChIP), a technique that allows one to determine what proteins are associated with a particular promoter. […] Furthermore, there are other Wnt/catenin-regulated genes that selectively utilize p300 for transcriptional coactivation. An interesting example of this differential coactivator usage concerns the expression of the gene EphB2, a known Wnt/TCF/beta-catenin target gene. As almost 90% of colon cancers have high aberrant Wnt/TCF/beta-catenin activation, it would follow that EpHB2 expression would be increased with colon cancer disease progression. This, however, is not the case as EphB2 expression is generally lost in late stage colorectal cancers (34). Furthermore, disruption of EphB2 in the Min mouse, which carries a defective APC tumor suppressor gene, results in highly invasive carcinomas as opposed to the normal adenomas.

[5] = test system: Colorectal cancer cells; test: Survivin expression and cytotoxicity in colorectal cancer cells; type: cell-based
Description: (§2) Cancer. The importance of Wnt signaling in colorectal cancer is undisputed. Applicant's investigation on the therapeutic utility of ICG-001 therefore quite naturally began with colon cancer.

[6] = test system: Min mouse; test: Min mouse polyp model; type: in vivo
Description: as §2

[7] = test system: MDA-MB-231 cells; test: Stem cell markers in triple negative breast cancer cell line; type: cell-based
Description: This phenotype CD44^hi, CD24^lo has been associated with a subpopulation of cells that behave like a breast cancer stem/tumor initiating cell population (51). […] Beyond reduction of survivin message level, there is a gene expression profile consistent with the occurrence of a mesenchymal to epithelial (MET) transition (i.e., decreased expression of twist, vimentin and S100A4 and an increase in E-cadherin expression). Recently, there have been a number of papers, which have correlated epithelial to mesenchymal transition (EMT) with a CSC phenotype (52). EMT is a normal physiologic process that is important in development and in adults, for example in wound healing, but pathophysiologically is associated with tumor metastasis and organ fibrosis (see later discussion on fibrosis). Specific CBP/catenin antagonists can reverse this aberrant EMT in vivo (EMT also plays a critical role in the skin in hair loss etc. J Dermatol Sci. 2011 Jan; 61(1):7-13. Epub 2010 Dec. 5; epithelial-mesenchymal transition (EMT) plays important roles not only in the morphogenesis but also in wound repair, tissue fibrosis and cancer progression. Recently, regulatory mechanism of this process has been elaborately elucidated. EMT can be a new therapeutic target for treating skin ulcer, fibrosing alopecia, and malignant cutaneous cancers, including squamous cell carcinoma and melanoma).

[8] = test system: ER alpha receptor; test: ER alpha re-expression in triple negative breast cancer; type: cell-based
[9] = test system: bleomycin-induced pulmonary fibrosis; test: Bleomycin-induced lung injury / pulmonary fibrosis; type: in vivo, mouse
Description: The well-characterized model of bleomycin-induced lung injury has been extensively used to investigate potential pathways involved in the pathogenesis of pulmonary fibrosis and to explore therapeutic approaches.

[10] = test system: cerebral deposition of Aβ; test: Aβ deposition in penta-transgenic mouse model of Alzheimer's disease; type: in vivo; settings: 50 mg/kg/day, 2 months
Description: Applicant utilized a penta-transgenic mouse model of AD, which normally develops massive cerebral deposition of Aβ starting at 6 weeks of age. These mice were treated with either (A) ICG-001 (50 mg/kg/day) or (B) saline for 2 months. […] However, the effects of PS-1 mutations on the stability of beta-catenin, TCF/beta-catenin signaling, and thereby its potential role in AD remain controversial. […] In the CNS, EpB2 expression is associated with axonal guidance (16). […] In initial in vivo studies, applicant treated penta-transgenic mice that over express mutant APP (695) (Swedish (K670N, M671L), Florida (I716V) and London (V717I)) and PS-1 (M146L and L286V) mutations with ICG-001 for 2 months (months 2-4). These mice normally develop massive cerebral deposition of Aβ starting at 6 weeks of age.

[11] = test system: Adenosine Receptor A2B (ADORA2B); test: Gene expression array of cells in culture; type: cell-based; settings: colonic epithelium, 10 uM
[12] = test system: NOD/SCIDIL2R gamma−/− mice; test: Leukemia mouse model, hair growth and wound healing; type: in vivo; settings: 50 mg/kg/d with VDL versus VDL only
Description: NOD/SCIDIL2R gamma−/− mice were shaved and sublethally irradiated prior intravenous injection of 50,000 cells per animal. Leukemic animals were treated with a combination of intraperitoneally administered vincristine/dexamethasone/L-Aspariginase (VDL) and ICG-001 (50 mg/kg/d), which was delivered via subcutaneous osmotic pumps to ensure stable plasma levels, with VDL only as a control for 20 days. The animals were checked periodically for survival, hair growth, and wound healing.

[13] = test system: human anagen hair follicles; settings: cited from earlier work

Chain of CBP/beta-catenin interaction (Q92793 whole entry, the tested form may be a part): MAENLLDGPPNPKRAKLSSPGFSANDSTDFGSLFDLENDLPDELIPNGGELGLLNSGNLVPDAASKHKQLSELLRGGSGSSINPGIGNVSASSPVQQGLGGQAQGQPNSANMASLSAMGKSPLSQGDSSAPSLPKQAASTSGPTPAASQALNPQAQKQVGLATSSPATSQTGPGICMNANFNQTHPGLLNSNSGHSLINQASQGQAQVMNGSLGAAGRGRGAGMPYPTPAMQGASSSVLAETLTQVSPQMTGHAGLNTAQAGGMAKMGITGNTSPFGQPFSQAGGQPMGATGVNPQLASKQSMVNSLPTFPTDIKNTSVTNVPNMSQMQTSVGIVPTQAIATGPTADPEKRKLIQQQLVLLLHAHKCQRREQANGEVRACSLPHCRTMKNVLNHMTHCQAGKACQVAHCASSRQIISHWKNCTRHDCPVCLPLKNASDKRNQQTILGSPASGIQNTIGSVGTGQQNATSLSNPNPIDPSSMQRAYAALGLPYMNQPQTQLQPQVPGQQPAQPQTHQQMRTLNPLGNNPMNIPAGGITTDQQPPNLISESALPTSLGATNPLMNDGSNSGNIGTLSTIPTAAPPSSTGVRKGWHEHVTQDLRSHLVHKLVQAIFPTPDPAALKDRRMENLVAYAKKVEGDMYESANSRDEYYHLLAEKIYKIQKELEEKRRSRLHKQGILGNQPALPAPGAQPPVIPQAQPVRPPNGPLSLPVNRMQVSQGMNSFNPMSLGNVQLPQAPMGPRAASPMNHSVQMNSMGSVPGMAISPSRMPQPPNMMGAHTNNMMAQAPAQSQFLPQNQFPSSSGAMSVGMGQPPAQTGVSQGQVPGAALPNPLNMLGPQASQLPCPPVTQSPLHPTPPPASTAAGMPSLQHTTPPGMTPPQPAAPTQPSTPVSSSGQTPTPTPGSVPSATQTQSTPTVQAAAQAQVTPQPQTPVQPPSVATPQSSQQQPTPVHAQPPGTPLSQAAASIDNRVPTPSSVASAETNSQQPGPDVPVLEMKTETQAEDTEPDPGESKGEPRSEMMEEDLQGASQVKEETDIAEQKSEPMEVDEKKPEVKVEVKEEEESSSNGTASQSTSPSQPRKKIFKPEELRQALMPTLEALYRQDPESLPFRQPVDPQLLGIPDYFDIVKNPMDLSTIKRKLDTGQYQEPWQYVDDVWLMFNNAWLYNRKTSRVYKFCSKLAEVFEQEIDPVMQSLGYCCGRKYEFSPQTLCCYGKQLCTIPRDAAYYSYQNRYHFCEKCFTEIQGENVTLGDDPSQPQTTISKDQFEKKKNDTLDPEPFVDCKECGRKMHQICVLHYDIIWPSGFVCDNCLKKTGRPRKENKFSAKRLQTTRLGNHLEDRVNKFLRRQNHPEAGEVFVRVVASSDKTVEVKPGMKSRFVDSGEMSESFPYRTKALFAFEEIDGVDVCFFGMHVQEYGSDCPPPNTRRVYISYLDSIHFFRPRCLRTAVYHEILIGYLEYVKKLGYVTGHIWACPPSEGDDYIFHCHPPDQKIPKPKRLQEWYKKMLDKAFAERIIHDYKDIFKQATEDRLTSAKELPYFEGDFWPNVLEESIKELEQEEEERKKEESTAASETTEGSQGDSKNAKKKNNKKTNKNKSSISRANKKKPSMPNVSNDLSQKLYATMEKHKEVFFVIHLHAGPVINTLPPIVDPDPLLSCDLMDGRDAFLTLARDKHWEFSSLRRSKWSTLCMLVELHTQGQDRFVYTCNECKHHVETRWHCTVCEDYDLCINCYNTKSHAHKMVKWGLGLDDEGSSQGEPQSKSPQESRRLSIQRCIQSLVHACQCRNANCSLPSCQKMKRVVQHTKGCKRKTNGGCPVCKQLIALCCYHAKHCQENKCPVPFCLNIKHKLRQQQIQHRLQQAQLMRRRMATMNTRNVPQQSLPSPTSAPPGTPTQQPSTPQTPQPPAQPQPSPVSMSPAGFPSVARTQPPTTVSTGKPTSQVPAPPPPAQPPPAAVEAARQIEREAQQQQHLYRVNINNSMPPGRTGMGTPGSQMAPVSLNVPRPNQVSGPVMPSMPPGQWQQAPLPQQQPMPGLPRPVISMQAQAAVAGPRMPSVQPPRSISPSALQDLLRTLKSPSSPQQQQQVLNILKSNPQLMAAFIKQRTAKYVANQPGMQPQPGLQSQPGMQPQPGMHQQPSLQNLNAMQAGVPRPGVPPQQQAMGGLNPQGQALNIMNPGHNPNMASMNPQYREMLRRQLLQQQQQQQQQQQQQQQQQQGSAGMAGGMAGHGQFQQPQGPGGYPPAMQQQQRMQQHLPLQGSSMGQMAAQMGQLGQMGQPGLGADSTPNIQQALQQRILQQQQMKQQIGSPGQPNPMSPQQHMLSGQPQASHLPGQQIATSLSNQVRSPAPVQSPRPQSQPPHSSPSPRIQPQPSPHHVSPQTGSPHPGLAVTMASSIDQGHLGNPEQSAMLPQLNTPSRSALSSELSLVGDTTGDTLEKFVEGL
Chain of p300 (Q09472 whole entry, species assumed): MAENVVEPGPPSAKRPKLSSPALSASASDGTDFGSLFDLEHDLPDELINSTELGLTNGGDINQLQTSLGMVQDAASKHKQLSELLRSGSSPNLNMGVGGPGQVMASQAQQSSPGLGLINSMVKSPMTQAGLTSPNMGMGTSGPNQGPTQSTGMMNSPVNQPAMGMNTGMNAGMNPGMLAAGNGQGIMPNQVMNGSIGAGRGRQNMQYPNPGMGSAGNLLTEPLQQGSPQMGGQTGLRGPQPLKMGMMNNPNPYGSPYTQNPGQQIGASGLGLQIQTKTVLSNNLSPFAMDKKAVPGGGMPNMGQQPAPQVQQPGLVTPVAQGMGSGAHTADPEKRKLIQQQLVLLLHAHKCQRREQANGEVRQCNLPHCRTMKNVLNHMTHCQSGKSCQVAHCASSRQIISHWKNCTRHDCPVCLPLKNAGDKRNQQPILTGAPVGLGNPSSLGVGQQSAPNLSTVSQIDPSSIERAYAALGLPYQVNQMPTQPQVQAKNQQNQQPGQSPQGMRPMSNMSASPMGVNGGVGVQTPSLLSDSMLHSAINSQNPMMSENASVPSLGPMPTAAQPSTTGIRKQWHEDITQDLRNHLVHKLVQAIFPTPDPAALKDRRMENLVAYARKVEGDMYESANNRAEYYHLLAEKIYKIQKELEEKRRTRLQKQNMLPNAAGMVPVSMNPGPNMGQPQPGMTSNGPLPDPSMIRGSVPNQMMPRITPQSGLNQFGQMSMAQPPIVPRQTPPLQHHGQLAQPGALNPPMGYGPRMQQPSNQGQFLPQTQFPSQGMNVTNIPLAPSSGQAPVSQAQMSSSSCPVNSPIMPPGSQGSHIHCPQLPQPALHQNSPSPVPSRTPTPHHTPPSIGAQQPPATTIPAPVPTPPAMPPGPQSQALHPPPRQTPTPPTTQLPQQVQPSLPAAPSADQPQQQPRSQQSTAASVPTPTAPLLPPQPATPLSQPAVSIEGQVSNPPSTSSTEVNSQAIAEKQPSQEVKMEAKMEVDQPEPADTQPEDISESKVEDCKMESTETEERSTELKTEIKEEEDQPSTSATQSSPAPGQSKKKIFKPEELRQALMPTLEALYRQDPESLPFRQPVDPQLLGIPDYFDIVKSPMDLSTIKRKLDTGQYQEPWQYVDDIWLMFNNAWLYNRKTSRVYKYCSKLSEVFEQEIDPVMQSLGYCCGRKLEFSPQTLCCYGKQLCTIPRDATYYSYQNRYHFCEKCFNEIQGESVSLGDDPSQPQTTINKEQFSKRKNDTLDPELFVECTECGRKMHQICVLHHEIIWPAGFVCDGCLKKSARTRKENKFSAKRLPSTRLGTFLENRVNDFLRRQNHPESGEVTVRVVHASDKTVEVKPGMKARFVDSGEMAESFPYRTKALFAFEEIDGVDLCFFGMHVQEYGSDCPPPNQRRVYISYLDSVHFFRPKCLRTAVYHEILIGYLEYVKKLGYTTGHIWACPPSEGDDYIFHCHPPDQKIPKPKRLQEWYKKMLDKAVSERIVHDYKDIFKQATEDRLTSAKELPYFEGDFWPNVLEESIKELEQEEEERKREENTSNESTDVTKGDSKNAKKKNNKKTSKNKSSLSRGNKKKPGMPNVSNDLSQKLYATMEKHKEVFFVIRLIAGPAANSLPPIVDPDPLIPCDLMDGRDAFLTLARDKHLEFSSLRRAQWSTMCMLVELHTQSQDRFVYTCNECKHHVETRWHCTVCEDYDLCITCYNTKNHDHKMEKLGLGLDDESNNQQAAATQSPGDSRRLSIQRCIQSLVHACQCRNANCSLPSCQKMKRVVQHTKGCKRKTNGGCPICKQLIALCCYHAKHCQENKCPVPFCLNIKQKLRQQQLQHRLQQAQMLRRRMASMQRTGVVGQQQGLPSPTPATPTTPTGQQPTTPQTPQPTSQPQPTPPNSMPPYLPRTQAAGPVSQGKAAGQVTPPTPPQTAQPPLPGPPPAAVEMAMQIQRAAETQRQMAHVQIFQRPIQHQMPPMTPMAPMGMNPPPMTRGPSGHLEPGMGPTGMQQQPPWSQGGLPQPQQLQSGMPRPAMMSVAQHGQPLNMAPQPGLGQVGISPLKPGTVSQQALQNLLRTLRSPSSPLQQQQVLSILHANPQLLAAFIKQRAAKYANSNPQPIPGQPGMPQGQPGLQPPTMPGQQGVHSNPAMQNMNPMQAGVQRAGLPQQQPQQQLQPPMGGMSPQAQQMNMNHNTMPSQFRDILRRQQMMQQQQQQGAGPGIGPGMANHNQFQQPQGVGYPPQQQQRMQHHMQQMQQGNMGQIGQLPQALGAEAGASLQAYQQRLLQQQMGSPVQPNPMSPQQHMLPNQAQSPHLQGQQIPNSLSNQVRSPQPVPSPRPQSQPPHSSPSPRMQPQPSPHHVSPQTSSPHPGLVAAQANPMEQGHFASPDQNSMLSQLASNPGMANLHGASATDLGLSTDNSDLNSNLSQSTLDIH

- binding to p300 [1]: not to its closely related homolog p300
- interaction between CBP and beta-catenin [2]: disrupted
- expression of the ER alpha receptor [8]: re-expression
Structure (SMILES): O=C1[C@H](Cc2ccc(O)cc2)N2C(=O)CCN(C(=O)NCc3ccccc3)[C@H]2CN1Cc1cccc2ccccc12 [ICG-001]
- p300/beta-catenin interaction [3]: without affecting
- expression of EphB2 ([4]; colon cancer cells): increasing the expression
- c-myc message ([4]; colorectal cancer cells): slight increase in message
- cyclin D1 message ([4]; colorectal cancer cells): decrease in message
- survivin message ([4]; colorectal cancer cells): decreased message
- survivin expression [5]: down-regulated
- cytotoxicity ([5]; colorectal cancer cells versus normal colonic epithelial cells): selective cytotoxicity
- polyps [6]: reducing polyps
- ALDH activity [7]: dramatically decreases
- side population (SP) [7]: dramatically decreases
- recruitment of p300 to the CD24 promoter ([7]; ChIP): increased recruitment
- CD44 expression ([7]; MDA-MB-231): decreasing
- expression of cell surface CD24 ([7]; MDA-MB-231, 24h): significantly increased
- lacZ expression in airway and alveolar epithelium ([9]; BAT-gal transgenic mice, intranasal bleomycin): significantly reduced
- expression of genes associated with fibrosis, ECM deposition and EMT ([9]; after bleomycin): essentially to the level of control
- expression of S100A4/FSP-1 ([9]; in vivo in the mouse): significantly decreased
- established fibrosis ([9]; mouse model): could reverse established fibrosis
- severity of pulmonary fibrosis ([9]; pretreatment): significantly reduced the severity
- Aβ staining in the parietal lobe [10]: significant (A) decrease
- amyloid plaque formation ([10]; immunohistochemistry): significant decrease
- increase of expression of adenosine receptors (ADORA2B) [11]: ~10 ×
- healing of wounds from pump insertion [12]: had substantial improved; also recorded: heal quicker
- hair growth of shaved area ([12]; within two weeks): had regrown their hair; also recorded: substantial hair growth
- hair fiber elongation ([13]; dose-dependent): significantly reduced
- survivin expression ([13]; microdissected hair follicle): decreased
